From US9573911B2, “Diphosphate mimetics and uses thereof” (President and Fellows of Harvard College, priority 2011, dated 2017)

Tests used:
Experiment in all cases: Kinase profiling, Invitrogen Z'-LYTE
Type in all cases: biochemical
Conditions in all cases: Table 2
IKBKE (IKK epsilon) = target: T1, IKBKE (IKK epsilon) (Homo sapiens, UniProt Q14164)
T1 construct: purchased Invitrogen
T1 sequence (Q14164 1-716): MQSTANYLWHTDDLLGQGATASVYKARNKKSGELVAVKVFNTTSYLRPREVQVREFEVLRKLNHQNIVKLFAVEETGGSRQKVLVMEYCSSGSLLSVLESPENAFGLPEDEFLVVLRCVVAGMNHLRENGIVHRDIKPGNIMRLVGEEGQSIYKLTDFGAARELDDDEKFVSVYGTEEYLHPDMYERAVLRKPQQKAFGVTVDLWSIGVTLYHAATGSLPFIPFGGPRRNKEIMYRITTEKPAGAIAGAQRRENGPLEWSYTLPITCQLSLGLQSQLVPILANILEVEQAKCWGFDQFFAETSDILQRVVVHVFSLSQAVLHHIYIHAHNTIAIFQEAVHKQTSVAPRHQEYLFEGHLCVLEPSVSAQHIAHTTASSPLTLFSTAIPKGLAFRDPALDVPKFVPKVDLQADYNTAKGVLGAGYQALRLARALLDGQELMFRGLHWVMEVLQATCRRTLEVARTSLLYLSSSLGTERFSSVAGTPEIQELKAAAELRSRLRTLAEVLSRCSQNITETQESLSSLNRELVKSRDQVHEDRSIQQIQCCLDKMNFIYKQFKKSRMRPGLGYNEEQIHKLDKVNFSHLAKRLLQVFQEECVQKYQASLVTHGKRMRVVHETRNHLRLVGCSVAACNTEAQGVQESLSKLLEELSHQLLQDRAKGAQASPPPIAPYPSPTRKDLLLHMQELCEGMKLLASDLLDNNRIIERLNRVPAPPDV
Procedure: (§1) Kinase profiling was conducted using Invitrogen Z'-LYTE screening protocol and assay conditions found at www.invitrogen.com. Compound (2) inhibited PLK1 completely at 5 μM.

FER = target: T2, FER (Homo sapiens, UniProt P16591)
T2 construct: purchased Invitrogen
Procedure: as §1

ABL1 = target: T3, ABL1 (Homo sapiens, UniProt P00519)
T3 construct: purchased Invitrogen
Procedure: as §1

SRPK2 = target: T4, SRPK2 (Homo sapiens, UniProt P78362)
T4 construct: purchased Invitrogen
Procedure: as §1

MAPK12 (p38 gamma) = target: T5, MAPK12 (p38 gamma) (Homo sapiens, UniProt P53778)
T5 construct: purchased Invitrogen
T5 sequence (P53778 1-367): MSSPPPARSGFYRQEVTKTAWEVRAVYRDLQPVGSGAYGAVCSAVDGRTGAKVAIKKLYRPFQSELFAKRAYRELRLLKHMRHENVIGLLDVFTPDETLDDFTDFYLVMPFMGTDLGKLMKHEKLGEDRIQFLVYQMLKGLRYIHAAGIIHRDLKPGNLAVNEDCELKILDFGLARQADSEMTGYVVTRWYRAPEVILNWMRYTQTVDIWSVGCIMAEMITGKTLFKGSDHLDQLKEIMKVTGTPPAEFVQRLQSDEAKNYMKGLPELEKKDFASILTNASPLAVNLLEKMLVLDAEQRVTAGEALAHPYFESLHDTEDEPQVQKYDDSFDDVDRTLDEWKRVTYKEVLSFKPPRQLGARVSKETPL
Procedure: as §1

RET = target: T6, RET (Homo sapiens, UniProt P07949)
T6 construct: purchased Invitrogen
Procedure: as §1

MST1R (RON) = target: T7, MST1R (RON) (Homo sapiens, UniProt Q04912)
T7 construct: purchased Invitrogen
Procedure: as §1

GRK4 = target: T8, GRK4 (Homo sapiens, UniProt P32298)
T8 construct: purchased Invitrogen
Procedure: as §1

RPS6KA2 (RSK3) = target: T9, RPS6KA2 (RSK3) (Homo sapiens, UniProt Q15349)
T9 construct: purchased Invitrogen
Procedure: as §1

HIPK2 = target: T10, HIPK2 (Homo sapiens, UniProt Q9H2X6)
T10 construct: purchased Invitrogen
Procedure: as §1

MARK2 = target: T11, MARK2 (Homo sapiens, UniProt Q7KZI7)
T11 construct: purchased Invitrogen
Procedure: as §1

MAPKAPK5 (PRAK) = target: T12, MAPKAPK5 (PRAK) (Homo sapiens, UniProt Q8IW41)
T12 construct: purchased Invitrogen
T12 sequence (Q8IW41 1-473): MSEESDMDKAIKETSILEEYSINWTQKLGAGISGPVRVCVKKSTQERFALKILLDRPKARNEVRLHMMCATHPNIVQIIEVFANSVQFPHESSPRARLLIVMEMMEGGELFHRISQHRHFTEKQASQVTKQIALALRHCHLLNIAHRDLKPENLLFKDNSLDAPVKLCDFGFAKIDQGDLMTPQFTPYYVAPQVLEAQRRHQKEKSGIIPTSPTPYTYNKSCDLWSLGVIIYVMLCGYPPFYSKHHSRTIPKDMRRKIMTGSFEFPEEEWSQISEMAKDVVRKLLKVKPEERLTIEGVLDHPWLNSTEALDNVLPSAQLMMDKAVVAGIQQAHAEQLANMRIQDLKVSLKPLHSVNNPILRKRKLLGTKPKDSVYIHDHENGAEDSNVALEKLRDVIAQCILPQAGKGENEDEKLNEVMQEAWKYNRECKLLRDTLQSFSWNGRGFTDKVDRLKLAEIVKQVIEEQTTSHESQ
Procedure: as §1

T4 sequence (P78362 whole entry): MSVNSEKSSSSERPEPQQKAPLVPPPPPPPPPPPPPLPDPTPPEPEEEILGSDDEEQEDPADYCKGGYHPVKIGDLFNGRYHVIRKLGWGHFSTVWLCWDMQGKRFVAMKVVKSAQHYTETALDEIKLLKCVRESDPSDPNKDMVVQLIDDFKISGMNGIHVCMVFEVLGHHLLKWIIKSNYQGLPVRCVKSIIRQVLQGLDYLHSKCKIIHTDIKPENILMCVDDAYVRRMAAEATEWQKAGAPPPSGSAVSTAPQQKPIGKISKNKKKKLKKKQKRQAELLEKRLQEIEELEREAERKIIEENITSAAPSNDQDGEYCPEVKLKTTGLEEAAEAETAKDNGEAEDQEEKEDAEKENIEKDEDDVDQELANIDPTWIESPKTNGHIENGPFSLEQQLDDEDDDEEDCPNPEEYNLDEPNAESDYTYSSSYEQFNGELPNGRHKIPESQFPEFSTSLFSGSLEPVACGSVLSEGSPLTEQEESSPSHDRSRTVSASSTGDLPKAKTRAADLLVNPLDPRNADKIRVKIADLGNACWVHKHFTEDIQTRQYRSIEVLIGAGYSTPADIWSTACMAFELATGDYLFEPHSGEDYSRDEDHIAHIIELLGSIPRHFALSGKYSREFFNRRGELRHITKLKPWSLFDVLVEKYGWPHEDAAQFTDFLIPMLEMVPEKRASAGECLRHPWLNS
T3 sequence (P00519 whole entry): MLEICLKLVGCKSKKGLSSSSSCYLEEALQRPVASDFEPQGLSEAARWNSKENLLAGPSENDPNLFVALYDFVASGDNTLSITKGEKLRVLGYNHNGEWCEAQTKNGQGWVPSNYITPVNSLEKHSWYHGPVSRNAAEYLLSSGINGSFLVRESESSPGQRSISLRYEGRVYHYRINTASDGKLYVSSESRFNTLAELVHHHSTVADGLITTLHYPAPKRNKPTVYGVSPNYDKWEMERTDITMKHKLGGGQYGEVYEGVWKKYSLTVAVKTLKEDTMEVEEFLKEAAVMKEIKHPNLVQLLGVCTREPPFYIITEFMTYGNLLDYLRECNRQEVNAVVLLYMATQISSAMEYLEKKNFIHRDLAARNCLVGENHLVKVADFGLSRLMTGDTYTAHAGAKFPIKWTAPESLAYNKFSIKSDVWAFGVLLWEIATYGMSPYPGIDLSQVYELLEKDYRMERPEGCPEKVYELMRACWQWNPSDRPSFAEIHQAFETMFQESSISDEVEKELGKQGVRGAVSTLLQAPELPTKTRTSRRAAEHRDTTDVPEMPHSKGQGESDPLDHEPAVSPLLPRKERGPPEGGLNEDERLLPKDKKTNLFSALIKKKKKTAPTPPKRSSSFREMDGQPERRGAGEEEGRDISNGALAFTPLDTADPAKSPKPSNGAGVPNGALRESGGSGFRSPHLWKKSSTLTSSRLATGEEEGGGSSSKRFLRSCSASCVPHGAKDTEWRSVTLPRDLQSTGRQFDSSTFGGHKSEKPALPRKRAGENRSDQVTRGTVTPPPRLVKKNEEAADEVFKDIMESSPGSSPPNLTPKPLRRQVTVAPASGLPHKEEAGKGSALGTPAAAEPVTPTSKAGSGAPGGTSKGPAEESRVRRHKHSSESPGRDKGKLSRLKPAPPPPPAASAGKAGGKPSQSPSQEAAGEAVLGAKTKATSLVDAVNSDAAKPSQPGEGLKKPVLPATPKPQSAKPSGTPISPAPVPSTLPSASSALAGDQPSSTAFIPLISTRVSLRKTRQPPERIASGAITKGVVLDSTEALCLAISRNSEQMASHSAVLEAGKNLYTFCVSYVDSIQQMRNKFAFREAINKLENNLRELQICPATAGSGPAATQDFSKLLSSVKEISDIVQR
T6 sequence (P07949 29-1114): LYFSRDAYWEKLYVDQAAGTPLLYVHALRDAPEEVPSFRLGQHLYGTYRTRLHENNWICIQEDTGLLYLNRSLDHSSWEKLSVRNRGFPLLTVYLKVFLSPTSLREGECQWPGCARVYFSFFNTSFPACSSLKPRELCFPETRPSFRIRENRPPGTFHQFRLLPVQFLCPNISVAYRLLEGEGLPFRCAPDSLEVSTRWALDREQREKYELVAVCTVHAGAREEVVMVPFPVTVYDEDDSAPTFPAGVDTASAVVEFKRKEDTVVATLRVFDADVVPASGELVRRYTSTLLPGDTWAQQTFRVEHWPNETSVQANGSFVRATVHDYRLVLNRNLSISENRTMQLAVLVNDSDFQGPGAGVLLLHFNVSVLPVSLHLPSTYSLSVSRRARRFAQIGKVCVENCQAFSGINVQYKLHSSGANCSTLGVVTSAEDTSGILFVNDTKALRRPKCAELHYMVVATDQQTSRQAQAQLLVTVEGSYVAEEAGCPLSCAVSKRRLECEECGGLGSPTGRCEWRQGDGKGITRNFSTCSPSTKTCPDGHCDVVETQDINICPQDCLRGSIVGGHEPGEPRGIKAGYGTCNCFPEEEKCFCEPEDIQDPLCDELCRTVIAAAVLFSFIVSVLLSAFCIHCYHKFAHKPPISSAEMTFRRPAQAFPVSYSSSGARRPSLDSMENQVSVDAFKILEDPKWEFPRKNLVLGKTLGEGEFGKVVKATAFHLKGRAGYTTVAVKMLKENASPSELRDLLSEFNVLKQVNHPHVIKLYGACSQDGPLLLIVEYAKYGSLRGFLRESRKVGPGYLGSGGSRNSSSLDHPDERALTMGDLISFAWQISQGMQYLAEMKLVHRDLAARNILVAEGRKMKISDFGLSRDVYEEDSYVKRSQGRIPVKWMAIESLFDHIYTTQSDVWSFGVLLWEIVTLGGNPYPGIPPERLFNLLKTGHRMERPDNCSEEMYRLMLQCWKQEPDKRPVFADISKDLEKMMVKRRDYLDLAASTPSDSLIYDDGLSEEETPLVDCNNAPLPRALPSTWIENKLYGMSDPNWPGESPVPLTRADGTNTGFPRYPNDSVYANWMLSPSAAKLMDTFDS
T2 sequence (P16591 whole entry): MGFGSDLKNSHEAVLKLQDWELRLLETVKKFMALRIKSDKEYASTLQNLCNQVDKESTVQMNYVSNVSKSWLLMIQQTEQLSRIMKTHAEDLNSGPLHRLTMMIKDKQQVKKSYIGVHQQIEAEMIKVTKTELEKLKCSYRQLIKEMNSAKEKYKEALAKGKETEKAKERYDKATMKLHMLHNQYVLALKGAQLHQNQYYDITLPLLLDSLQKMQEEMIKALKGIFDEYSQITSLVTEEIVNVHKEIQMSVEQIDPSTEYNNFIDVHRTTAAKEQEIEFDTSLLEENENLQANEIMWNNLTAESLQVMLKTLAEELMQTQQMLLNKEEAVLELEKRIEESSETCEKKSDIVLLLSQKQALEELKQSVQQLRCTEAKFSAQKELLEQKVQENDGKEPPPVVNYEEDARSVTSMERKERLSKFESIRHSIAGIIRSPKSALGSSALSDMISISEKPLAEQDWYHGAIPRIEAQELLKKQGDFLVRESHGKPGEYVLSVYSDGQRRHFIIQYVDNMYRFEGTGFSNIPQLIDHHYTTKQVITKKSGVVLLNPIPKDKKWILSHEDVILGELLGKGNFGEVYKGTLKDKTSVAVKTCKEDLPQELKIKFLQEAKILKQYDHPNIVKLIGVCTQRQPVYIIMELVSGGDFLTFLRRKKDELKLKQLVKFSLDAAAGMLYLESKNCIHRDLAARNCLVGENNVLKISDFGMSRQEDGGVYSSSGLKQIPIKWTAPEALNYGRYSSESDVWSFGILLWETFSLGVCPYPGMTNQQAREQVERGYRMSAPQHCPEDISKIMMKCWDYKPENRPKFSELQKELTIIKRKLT
T8 sequence (P32298 whole entry): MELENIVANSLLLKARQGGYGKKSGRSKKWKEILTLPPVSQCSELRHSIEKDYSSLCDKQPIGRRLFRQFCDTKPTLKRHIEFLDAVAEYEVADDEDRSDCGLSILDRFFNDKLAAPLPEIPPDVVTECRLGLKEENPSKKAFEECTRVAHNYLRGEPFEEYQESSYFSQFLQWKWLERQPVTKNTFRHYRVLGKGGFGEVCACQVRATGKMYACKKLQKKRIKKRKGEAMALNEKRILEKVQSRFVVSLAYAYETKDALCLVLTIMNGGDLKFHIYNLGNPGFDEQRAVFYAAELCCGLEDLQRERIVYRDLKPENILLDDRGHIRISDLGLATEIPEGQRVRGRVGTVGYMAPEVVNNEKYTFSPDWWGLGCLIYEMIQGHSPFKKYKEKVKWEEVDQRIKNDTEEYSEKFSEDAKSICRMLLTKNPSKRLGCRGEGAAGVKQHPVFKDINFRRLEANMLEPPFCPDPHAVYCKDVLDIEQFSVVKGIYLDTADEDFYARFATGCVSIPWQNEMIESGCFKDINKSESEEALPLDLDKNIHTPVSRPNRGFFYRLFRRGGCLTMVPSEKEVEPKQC
T9 sequence (Q15349 whole entry): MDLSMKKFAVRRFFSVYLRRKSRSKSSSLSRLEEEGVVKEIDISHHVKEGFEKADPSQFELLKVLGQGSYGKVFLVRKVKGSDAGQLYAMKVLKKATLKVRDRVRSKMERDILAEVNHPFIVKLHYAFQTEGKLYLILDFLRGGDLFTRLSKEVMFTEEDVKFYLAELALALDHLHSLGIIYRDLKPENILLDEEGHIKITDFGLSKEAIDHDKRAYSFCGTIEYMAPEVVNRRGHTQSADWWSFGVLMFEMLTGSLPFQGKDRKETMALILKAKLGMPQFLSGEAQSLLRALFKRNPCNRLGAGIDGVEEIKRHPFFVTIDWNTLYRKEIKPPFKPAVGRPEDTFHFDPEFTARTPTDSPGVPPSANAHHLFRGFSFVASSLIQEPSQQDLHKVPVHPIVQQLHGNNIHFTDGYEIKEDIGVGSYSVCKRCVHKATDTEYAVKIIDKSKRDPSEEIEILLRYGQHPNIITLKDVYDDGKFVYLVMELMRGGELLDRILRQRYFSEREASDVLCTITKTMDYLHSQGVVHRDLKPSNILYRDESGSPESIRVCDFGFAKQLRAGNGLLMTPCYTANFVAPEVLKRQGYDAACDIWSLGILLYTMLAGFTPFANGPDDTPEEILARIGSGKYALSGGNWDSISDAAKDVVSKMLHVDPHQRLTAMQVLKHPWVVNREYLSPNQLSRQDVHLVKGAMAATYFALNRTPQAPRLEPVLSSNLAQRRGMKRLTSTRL

## COc1ccc(OC(=O)n2c(=O)oc3cc(C(C)=O)ccc32)cc1 [Compound 2]
IKBKE (IKK epsilon)
  % Inhibition Point 1: 3%
  % Inhibition Point 2: 4%
  % Inhibition mean: 3%
FER
  % Inhibition Point 1: −261%
  % Inhibition Point 2: −240%
  % Inhibition mean: −251%
ABL1
  % Inhibition Point 1: −147%
  % Inhibition Point 2: −234%
  % Inhibition mean: −190%
SRPK2
  % Inhibition Point 1: −155%
  % Inhibition Point 2: −160%
  % Inhibition mean: −158%
MAPK12 (p38 gamma)
  % Inhibition Point 1: −203%
  % Inhibition Point 2: −203%
  % Inhibition mean: −203%
RET
  % Inhibition Point 1: −91%
  % Inhibition Point 2: −70%
  % Inhibition mean: −80%
MST1R (RON)
  % Inhibition Point 1: −258%
  % Inhibition Point 2: −245%
  % Inhibition mean: −252%
GRK4
  % Inhibition Point 1: 77%
  % Inhibition Point 2: 76%
  % Inhibition mean: 76%
RPS6KA2 (RSK3)
  % Inhibition Point 1: −266%
  % Inhibition Point 2: −267%
  % Inhibition mean: −267%
HIPK2
  % Inhibition Point 1: −96%
  % Inhibition Point 2: −90%
  % Inhibition mean: −93%
MARK2
  % Inhibition Point 1: −172%
  % Inhibition Point 2: −157%
  % Inhibition mean: −164%
MAPKAPK5 (PRAK)
  % Inhibition Point 1: −146%
  % Inhibition Point 2: −147%
  % Inhibition mean: −146%
